The values that follow come from US20090215783A1, “COMPOSITION FOR INDUCTION OR INHIBITION OF STEM CELL DIFFERENTIATION” (CHOONGWAE PHARMA CORPORATION, priority 2006, published 2009).

For assay [1], the system named is human bone marrow derived-mesenchymal stem cells (hBMMSC). Description: Osteogenesis modulating activity assay by test compound alone (ALP activity). The assay is classed as cell-based. The following applies: Homo sapiens, 168 h; hBMMSC, 20 μM test compound alone, six to seven days; read-out: Osteogenesis: fold change of ALP activity compared with DMSO control. As for the experimental part: Cell culture: Human bone marrow derived-mesenchymal stem cells (hBMMSC) were isolated from normal subjects.
Osteogenesis modulating activity assay by test compound alone: hBMMSC were cultivated in the culture medium and cells were seeded into 96-well culture plates and test compounds were dissolved in DMSO and diluted with culture media (final 0.01% DMSO) and added into the media (final concentration of test compound was 20 μM) and cultured in the CO2 incubator (37° C., 5% CO2). Culture medium was changed every two days with fresh one and compound was treated again whenever medium was changed. Six to seven days after incubation, Alkaline phosphatase activity of cell lysates was measured by colorimetry. For the determination of mineralization within the cells, Von Kossa staining or Alizarin Red S assay was performed 10-14 days after incubation.

Assay [2] concerns Mouse embryonic stem (ES) cells, TC1. Description: Cardiomyogenesis modulating activity assay (alpha-MHC promoter EGFP, embryoid bodies, FACS/fluorescence microscopy). The assay is classed as cell-based. The following applies: embryoid bodies treated for 5 days, FACS. As for the experimental part: a. Cell culture: Mouse embryonic stem (ES) cells, TC1 derived from 129/S6 strain were cultured on irradiated feeder layer in the culture medium which is high-glucose DMEM (Gibco) BRL, Germany) supplemented with 15% FBS (Hyclone), 0.1 mM beta-mercaptoethanol, […] sodium pyruvate, 1 mM L-glutamine and 1× non-essential amino acids.
b. Establishment of alpha-MHC stably transformed ES cell line: A construct (FIG. 8) containing 1.8 kb promoter sequence of the mouse alpha-MHC gene between EcoRI and SalI sites of pEGFP-1 (Clontech Laboratories, Inc, CA, USA) was linearized at XhoI site, and was introduced into mouse ES cells, TC1, using the Gene Pulser II (BioRad, MA). A selection medium containing G418 was applied for two weeks from 24 hours after electroporation. The selected ES cell clones were harvested and expanded on the feeder cell layer. The green fluorescence-expressing clones when differentiated into cardiomyocytes were used in this experiment.
c. Cardiomyogenesis modulating activity assay: Embryoid body (EB) was formed by hanging drop culture using about a number of 600 (six hundred) ES cells for two days and it was further expanded by culturing in suspension condition on a Petri-dish for another two days. Then each EB was plated on a well of 96 well culture plates. Test compounds were dissolved in DMSO and diluted with culture media (final 0.05% DMSO) and EB was treated with test compound for 5 days. Culture medium was changed every three days after plating. Expression level of EGFP was measured with FACS (Beckman). For FACS analysis, differentiating cells were dissociated with trypsin. For the determination of the extent of differentiation, EB was observed and photographed with an inverted fluorescence microscope (Zeiss, Germany). Number of beating EBs was counted under the microscope and recorded once daily.

Regarding `COc1ccc(CN2C[C@H]3N(C(=O)CN(C)N3C(=O)NCc3ccccc3)[C@@H](c3ccccc3)C2=O)cc1` [#25], in assay [1], the fold induction at 20 µM was found to be 0.6. The “Cardiomyogenesis: fold change of EGFP expression level compared with DMSO control” value (“Cardiomyogenesis: fold change” below) in assay [2] turned out to be 1.78 fold.
In the same order, the values of `C=CCOC(=O)NCCC[C@@H]1C(=O)N(Cc2ccc(OC)cc2)CC2N1C(=O)CN(C)N2C(=O)NCc1ccccc1` (stereo partly drawn) [#26] are 1.01 and 1.74 fold.
Take `CN1CC(=O)N2C(Cc3ccc(OCc4ccccc4)cc3)C(=O)N(CCCc3ccccc3)CC2N1C(=O)NCc1ccccc1` (stereo not drawn) [#27]: the fold induction at 20 µM in assay [1] is 0.96. Further, the “Cardiomyogenesis: fold change” value in assay [2] is reported as 0.52 fold.
As to `CN1CC(=O)N2[C@@H](CC3CCCCC3)C(=O)N(CCCc3ccccc3)C[C@@H]2N1C(=O)NCc1ccccc1` [#28], in assay [1], the fold induction at 20 µM was found to be 0.26. The “Cardiomyogenesis: fold change” value in assay [2] is 1.23 fold.
In the same order, the values of `CN1CC(=O)N2[C@@H](Cc3ccc(Cl)cc3)C(=O)N(CCCc3ccccc3)C[C@@H]2N1C(=O)NCc1ccccc1` [#29] are 0.91 and 1.71 fold.
The corresponding values for `CCCCN1C[C@H]2N(C(=O)CN(C)N2C(=O)NCc2ccccc2)[C@@H](Cc2ccc(Cl)cc2)C1=O` [#30] are 1.12 and 1.75 fold.
In the case of `CN1CC(=O)N2[C@H](Cc3ccccc3)C(=O)N(CCc3ccccc3)C[C@H]2N1C(=O)NCc1ccccc1` [#31], the fold induction at 20 µM in assay [1] was found to be 1. Further, the “Cardiomyogenesis: fold change” value in assay [2] came to 1.10 fold.
The corresponding values for `CN1CC(=O)N2[C@@H](COCc3ccccc3)C(=O)N(CCc3ccccc3)C[C@@H]2N1C(=O)NCc1ccccc1` [#32] are 0.94 and 0.95 fold.
With `CN1CC(=O)N2[C@@H](CCc3ccccc3)C(=O)N(CCc3ccccc3)C[C@@H]2N1C(=O)NCc1ccccc1` [#33], the fold induction at 20 µM in assay [1] was found to be 1.85. In assay [2], the “Cardiomyogenesis: fold change” value was 0.28 fold.
The corresponding values for `COc1ccc(C[C@H]2C(=O)N(CCc3ccccc3)C[C@H]3N2C(=O)CN(C)N3C(=O)NCc2ccccc2)cc1` [#34] are 1.03 and 1.71 fold.
In the case of `CN1CC(=O)N2[C@@H](Cc3ccc(OCc4ccccc4)cc3)C(=O)N(CCc3ccccc3)C[C@@H]2N1C(=O)NCc1ccccc1` [#35], the fold induction at 20 µM in assay [1] was determined as 0.94. Besides, the “Cardiomyogenesis: fold change” value in assay [2] was 1.03 fold.
As for `Cc1ccc(C[C@H]2C(=O)N(CCc3ccccc3)C[C@H]3N2C(=O)CN(C)N3C(=O)NCc2ccccc2)cc1` [#36], the fold induction at 20 µM in assay [1] was 1.55. For the same compound, the “Cardiomyogenesis: fold change” value in assay [2] amounted to 0.54 fold.
Consider `CN1CC(=O)N2[C@@H](CC3CCCCC3)C(=O)N(CCc3ccccc3)C[C@@H]2N1C(=O)NCc1ccccc1` [#37], for which the fold induction at 20 µM in assay [1] amounted to 0.95. In assay [2], the “Cardiomyogenesis: fold change” value came to 0.98 fold.
In the same order, the values of `CN1CC(=O)N2[C@@H](Cc3ccc(F)cc3)C(=O)N(CCc3ccccc3)C[C@@H]2N1C(=O)NCc1ccccc1` [#38] are 0.48 and 0.69 fold.
Consider `CN1CC(=O)N2[C@@H](Cc3ccc(Cl)cc3)C(=O)N(CCc3ccccc3)C[C@@H]2N1C(=O)NCc1ccccc1` [#39], for which the fold induction at 20 µM in assay [1] was 0.79. For the same compound, in assay [2], the “Cardiomyogenesis: fold change” value worked out at 0.29 fold.
For the compound `CCCCNC(=O)N1[C@H]2CN(CCCCc3ccccc3)C(=O)[C@H](Cc3ccc(O)cc3)N2C(=O)CN1Cc1cccc(F)c1` [#40], in assay [1], the fold induction at 20 µM turned out to be 0.69. The “Cardiomyogenesis: fold change” value in assay [2] was determined as 1.11 fold.
Take `CCCCNC(=O)N1[C@H]2CN(CCCCc3ccccc3)C(=O)[C@H](C(C)CC)N2C(=O)CN1Cc1cccc(F)c1` (stereo partly drawn) [#41]: the fold induction at 20 µM in assay [1] worked out at 0.6. For the same compound, in assay [2], the “Cardiomyogenesis: fold change” value was 2.15 fold.
In the same order, the values of `CCCCNC(=O)N1[C@H]2CN(CCCCc3ccccc3)C(=O)[C@H](CCC)N2C(=O)CN1Cc1cccc(F)c1` [#42] are 0.31 and 1.87 fold.
In the same order, the values of `CCCCNC(=O)N1C2CN(CCCCc3ccccc3)C(=O)C(CC(=O)O)N2C(=O)CN1Cc1cccc(F)c1` (stereo not drawn) [#43] are 0.33 and 1.17 fold.
Turning to `CCCCNC(=O)N1[C@H]2CN(CCCCc3ccccc3)C(=O)[C@H](CCC(=O)O)N2C(=O)CN1Cc1cccc(F)c1` [#44], the fold induction at 20 µM in assay [1] is 0.56. In assay [2], the “Cardiomyogenesis: fold change” value worked out at 1.98 fold.
`CCCCNC(=O)N1[C@H]2CN([C@@H](C)c3ccccc3)C(=O)[C@H](CC(C)C)N2C(=O)CN1Cc1ccc(C)cc1` [#46]: the fold induction at 20 µM in assay [1] came out at 1.02. Besides, the “Cardiomyogenesis: fold change” value in assay [2] was 1.90 fold.
The corresponding values for `C#CCN1CC(=O)N2C(Cc3ccc(C)cc3)C(=O)N(CCCCCCC)C[C@@H]2N1C(=O)NCc1ccccc1` (stereo partly drawn) [#51] are 0.31 and 0.49 fold.
Consider `CC(C)[C@H]1C(=O)N(Cc2cccc(F)c2)C[C@H]2N1C(=O)CN(Cc1ccccc1)N2C(=O)NCc1ccccc1` [#55], for which the fold induction at 20 µM in assay [1] is 0.98. Also, in assay [2], the “Cardiomyogenesis: fold change” value stood at 1.26 fold.
Consider `CCC(C)[C@H]1C(=O)N(Cc2cccc(F)c2)C[C@H]2N1C(=O)CN(Cc1ccccc1)N2C(=O)NCc1ccccc1` (stereo partly drawn) [#57], for which the fold induction at 20 µM in assay [1] stood at 0.64. The “Cardiomyogenesis: fold change” value in assay [2] was 0.43 fold.
The corresponding values for `CC(C)C[C@@H]1C(=O)N(Cc2cccc(C(F)(F)F)c2)C[C@@H]2N1C(=O)CN(Cc1ccc(F)cc1)N2C(=O)NCc1ccccc1` [#63] are 0.41 and 0.47 fold.
In the same order, the values of `O=C1[C@H](CCc2ccccc2)N2C(=O)CN(Cc3ccc(F)cc3)N(C(=O)NCc3ccccc3)[C@H]2CN1Cc1cccc(C(F)(F)F)c1` [#64] are 0.79 and 2.83 fold.
The corresponding values for `COc1ccc(C[C@H]2C(=O)N(Cc3cccc(C(F)(F)F)c3)C[C@H]3N2C(=O)CN(Cc2ccc(F)cc2)N3C(=O)NCc2ccccc2)cc1` [#65] are 1.34 and 2.54 fold.
Turning to `Cc1ccc(C[C@H]2C(=O)N(Cc3cccc(C(F)(F)F)c3)C[C@H]3N2C(=O)CN(Cc2ccc(F)cc2)N3C(=O)NCc2ccccc2)cc1` [#67], in assay [1], the fold induction at 20 µM was 0.8. In assay [2], the “Cardiomyogenesis: fold change” value came to 1.50 fold.
Take `CC[C@H]1C(=O)N(Cc2cccc(C(F)(F)F)c2)C[C@H]2N1C(=O)CN(Cc1ccc(F)cc1)N2C(=O)NCc1ccccc1` [#68]: in assay [1], the fold induction at 20 µM is 0.91. In assay [2], the “Cardiomyogenesis: fold change” value stood at 0.69 fold.
The corresponding values for `O=C1[C@H](CC2CCCCC2)N2C(=O)CN(Cc3ccc(F)cc3)N(C(=O)NCc3ccccc3)[C@H]2CN1Cc1cccc(C(F)(F)F)c1` [#69] are 0.71 and 1.69 fold.
